The values that follow come from article PMC7725459 (Science Advances, 2020).

The target in assay [1] is T1, SARS-CoV-2 M^pro (Severe acute respiratory syndrome coronavirus 2, UniProt P0DTD1). Type of assay: biochemical. The conditions noted are these: versus GC-376.
Assay [2] addresses SARS-CoV-2 HM-M^pro (Severe acute respiratory syndrome coronavirus 2, UniProt P0DTD1). Type of assay: binding.
The target of assay [3] is T1, SARS-CoV-2 M^pro. Briefly: Binding to SARS-CoV-2 M^pro using native mass spectrometry. The following applies: 10 μM ligand, 4 mM DTT.

As for `CC(C)C[C@H](NC(=O)OCc1ccccc1)C(=O)N[C@@H](CC(C)C)C(=O)N[C@@H](CC1CCNC1=O)C(=O)C(=O)NC1CC1` (stereo partly drawn) [UAWJ248], the “fold more potent than GC-376 (k2/KI)” value in assay [1] came out at 3.2 fold. In addition, in assay [2], the “ΔTm shift, HM-M^pro construct” value is 10.01 °C. Further, in assay [3], the “binding to M^pro by native mass spectrometry” value is listed as “confirmed”.
